Reference: patent US4683198A, “Novel maltose dehydrogenase, process for its production, and analytical method using the same” (Toyo Jozo Kabushiki Kaisha, priority 1983, dated 1987)

The molecules below were run on maltose dehydrogenase (acceptor) (assay: Substrate specificity of maltose dehydrogenase (acceptor), PMS/NTB assay at 550 nm). Conditions: substrate each 0.1M, 0.1 ml, in place of maltose; 37° C., 10 min.
Type: biochemical, Staphylococcus sp. B-0875
Protocol: 20 mM phosphate buffer (pH 7.5)
0.1% bovine serum albumin
0.025% nitrotetrazolium blue (NTB)
0.001% phenazine methosulfate (PMS: hydrogen acceptor)
(§1) The above reaction mixture (1.0 ml) in a small test tube is pre-incubated at 37° C. Enzyme solution (10 μl) is added thereto and incubated at 37° C. for 10 min. The reaction is stopped by adding 0.1N HCl (2.0 ml) and the optical density at 550 nm (As) is measured. Distilled water (10 μl) is added as a control and the amount measured at 550 nm (Ab).
One unit is defined by the amount of enzyme which oxidizes (dehydrogenates)1 μmole of maltose in one minute and enzyme activity is calculated by the following equation: [formula]
Maltose in the above assay method is replaced by the substrates in Table 2 (each 0.1M, 0.1 ml) and assayed according to the above assay method.

Row | Molecule | Relative Activity (%)
1 | CCO [ethanol] | 0
2 | O=C(CO)[C@@H](O)[C@H](O)[C@H](O)CO [fructose] | 31.4
3 | O=C[C@H](O)[C@@H](O)[C@@H](O)[C@H](O)CO [galactose] | 56.1
4 | O=C[C@H](O)[C@@H](O)[C@H](O)[C@H](O)CO [glucose] | 80.0
5 | OCC(O)CO [glycerol] | 0
6 | O[C@H]1[C@H](O)[C@@H](O)[C@H](O)[C@@H](O)[C@H]1O [inositol] | 0
7 | OC[C@H]1O[C@@H](O[C@H]2[C@H](O)[C@@H](O)C(O)O[C@@H]2CO)[C@H](O)[C@@H](O)[C@H]1O (stereo partly drawn) [lactose] | 58.2
8 | OC[C@H]1O[C@H](O[C@H]2[C@H](O)[C@@H](O)[C@@H](O[C@H]3[C@H](O)[C@@H](O)[C@@H](O[C@H]4[C@H](O)[C@@H](O)[C@@H](O[C@H]5[C@H](O)[C@@H](O)[C@@H](O[C@H]6[C@H](O)[C@@H](O)[C@@H](O[C@H]7[C@H](O)[C@@H](O)C(O)O[C@@H]7CO)O[C@@H]6CO)O[C@@H]5CO)O[C@@H]4CO)O[C@@H]3CO)O[C@@H]2CO)[C@H](O)[C@@H](O)[C@@H]1O (stereo partly drawn) [maltoheptaose] | 22.4
9 | OC[C@H]1O[C@H](O[C@H]2[C@H](O)[C@@H](O)[C@@H](O[C@H]3[C@H](O)[C@@H](O)[C@@H](O[C@H]4[C@H](O)[C@@H](O)[C@@H](O[C@H]5[C@H](O)[C@@H](O)[C@@H](O[C@H]6[C@H](O)[C@@H](O)C(O)O[C@@H]6CO)O[C@@H]5CO)O[C@@H]4CO)O[C@@H]3CO)O[C@@H]2CO)[C@H](O)[C@@H](O)[C@@H]1O (stereo partly drawn) [maltohexaose] | 28.6
10 | OC[C@H]1O[C@H](O[C@H]2[C@H](O)[C@@H](O)[C@@H](O[C@H]3[C@H](O)[C@@H](O)[C@@H](O[C@H]4[C@H](O)[C@@H](O)[C@@H](O[C@H]5[C@H](O)[C@@H](O)C(O)O[C@@H]5CO)O[C@@H]4CO)O[C@@H]3CO)O[C@@H]2CO)[C@H](O)[C@@H](O)[C@@H]1O (stereo partly drawn) [maltopentaose] | 36.4
11 | OC[C@H]1O[C@H](O[C@H]2[C@H](O)[C@@H](O)[C@H](O)O[C@@H]2CO)[C@H](O)[C@@H](O)[C@@H]1O [maltose] | 100
12 | OC[C@H]1O[C@H](O[C@H]2[C@H](O)[C@@H](O)[C@@H](O[C@H]3[C@H](O)[C@@H](O)[C@@H](O[C@H]4[C@H](O)[C@@H](O)C(O)O[C@@H]4CO)O[C@@H]3CO)O[C@@H]2CO)[C@H](O)[C@@H](O)[C@@H]1O (stereo partly drawn) [maltotetraose] | 60.3
13 | OC[C@H]1O[C@H](O[C@H]2[C@H](O)[C@@H](O)[C@@H](O[C@H]3[C@H](O)[C@@H](O)C(O)O[C@@H]3CO)O[C@@H]2CO)[C@H](O)[C@@H](O)[C@@H]1O (stereo partly drawn) [maltotriose] | 77.4
14 | O=C[C@@H](O)[C@@H](O)[C@H](O)[C@H](O)CO [mannose] | 52.4
15 | OC[C@H]1O[C@H](OC[C@H]2O[C@H](O[C@]3(CO)O[C@H](CO)[C@@H](O)[C@@H]3O)[C@H](O)[C@@H](O)[C@@H]2O)[C@H](O)[C@@H](O)[C@H]1O [raffinose] | 0
16 | OC[C@@H](O)[C@@H](O)[C@H](O)[C@@H](O)CO [sorbitol] | 0
17 | OC[C@H]1O[C@@](CO)(O[C@H]2O[C@H](CO)[C@@H](O)[C@H](O)[C@H]2O)[C@@H](O)[C@@H]1O [sucrose] | 0
18 | O=C[C@H](O)[C@@H](O)[C@H](O)CO [xylose] | 53.7

What follows are molecules tested on maltose dehydrogenase (acceptor) (assay: Hydrogen acceptor (coenzyme) of maltose dehydrogenase (acceptor) in oxidation of maltose). Conditions: as hydrogen acceptor; Reaction pH 7.5; substrate maltose.
Type: biochemical, Staphylococcus sp. B-0875
Design: Relative Activity (%): concentration or dose not given beside the values
Protocol: as §1
Hydrogen acceptor (coenzyme) of maltose dehydrogenase (acceptor) in the oxidative reaction (dehydrogenation) of maltose is measured according to the assay method. Maltose dehydrogenase (acceptor) of the present invention requires no NAD or NADP as a coenzyme. A decrease in soluble oxygen is observed at least whwn PMS, 1-methoxy-phenazine methosulfate (MPMS) or meldola blue is used as a hydrogen acceptor.

Row | Molecule | Relative Activity (%)
19 | COc1cccc2c1nc1ccccc1[n+]2C [MPMS, 1-methoxy-phenazine methosulfate] | 30
20 | NC(=O)c1ccc[n+]([C@@H]2O[C@H](COP(=O)([O-])OP(=O)(O)OC[C@H]3O[C@@H](n4cnc5c(N)ncnc54)[C@H](O)[C@@H]3O)[C@@H](O)[C@H]2O)c1 [NAD, nicotine adenine dinucleotide] | 0
21 | NC(=O)c1ccc[n+]([C@@H]2O[C@H](COP(=O)([O-])OP(=O)(O)OC[C@H]3O[C@@H](n4cnc5c(N)ncnc54)[C@H](OP(=O)(O)O)[C@@H]3O)[C@@H](O)[C@H]2O)c1 [NADP, nicotine adenine dinucleotide phosphate] | 0
22 | COc1cc(-c2ccc(-[n+]3nc(-c4ccccc4)nn3-c3ccc([N+](=O)[O-])cc3)c(OC)c2)ccc1-[n+]1nc(-c2ccccc2)nn1-c1ccc([N+](=O)[O-])cc1 [NTB, nitrotetrazolium blue] | 0
23 | C[n+]1c2ccccc2nc2ccccc21 [PMS, phenazine methosulfate] | 100
24 | C[N+](C)=c1ccc2nc3c(ccc4ccccc43)oc-2c1 [meldola blue, 9-dimethylaminobenzophenazoxonium chloride] | 20
25 | CN(C)c1ccc2nc3ccc(=[N+](C)C)cc-3sc2c1 [methylene blue] | 0

Same assay, conditions: oxidative reaction of maltose

Row | Molecule | ability to act as hydrogen acceptor
26 | CC(=O)Nc1cccc2c1nc1ccccc1[n+]2C [1-acetamide-phenazine methosulfate] | can also be a hydrogen acceptor
27 | O=C1C(Cl)=CC(=Nc2ccc(O)cc2)C=C1Cl [2,6-dichlorophenolindophenol] | can also be a hydrogen acceptor

Each molecule was assayed on serum amylase (assay: Serum amylase assay with different hydrogen acceptors (Example 12)). Conditions: 0.002% hydrogen acceptor; human serum 20 μl; 37° C.; absorbancy at 550 nm.
Type: biochemical
Protocol: 40 mM phosphate buffer pH 7.0
maltose dehydrogenase (acceptor) (16.7 U/ml)
Human serun (20 μl) was added to the reaction mixture hereinabove (the hydrogen acceptor is shown in Table 6), and the material was incubated at 37° C. for 5 mins. Reaction mixture II (0.4 ml) was added thereto and the material was incubated at 37° C. Changes in absorbancy at 550 nm were measured. The results are shown in Table 6, from which it will be seen that serum amylase can be measured whatever the hydrogen acceptor.

Row | Molecule | Relative Amylase Activity [%]
28 | CC(=O)Nc1cccc2c1nc1ccccc1[n+]2C [1-acetamide-phenazine methosulfate] | 103
29 | COc1cccc2c1nc1ccccc1[n+]2C [MPMS, 1-methoxy-phenazine methosulfate] | 102
30 | C[n+]1c2ccccc2nc2ccccc21 [PMS, phenazine methosulfate] | 100
31 | C[N+](C)=c1ccc2nc3c(ccc4ccccc43)oc-2c1 [meldola blue, 9-dimethylaminobenzophenazoxonium chloride] | 97.4

These molecules were tested on maltose dehydrogenase (acceptor) (assay: Effect of surface-active agents on enzyme activity). Conditions: Concentration 0.1%, in place of 0.2% Triton X-100; no addition = 100.
Type: biochemical, Staphylococcus sp. B-0875
Protocol: as §1
Surface active agents as in Table 5 are added one at a time to aliquots of the reaction mixture as in the assay method, in place of 0.2% Triton X-100, and the enzyme activity is measured.

Row | Molecule | Relative Activity (%)
32 | CCCCCCCCCCCCCCCC[N+](C)(C)C.[Cl-] [Cetyl trimethylammonium chloride] | 94
33 | CCCCCCCCCCCCOS(=O)(=O)O [SDS] | 3.8
34 | CCCCCCCCCCCCCCCC(=O)N(C)CC(=O)[O-].[Na+] [Sarcosinate PN] | 114
35 | C[C@H](CCC(=O)O)[C@H]1CC[C@H]2[C@@H]3[C@H](O)C[C@@H]4C[C@H](O)CC[C@]4(C)[C@H]3C[C@H](O)[C@]12C [Sodium cholate] | 86
36 | Sodium laurylbenzene sulfate | 0.2
37 | Span-85 | 103
38 | Triton X-100 | 115
39 | Tween-80 | 104

The molecules below were run on maltose dehydrogenase (acceptor) (assay: Km value, substrate concentration-reaction rate relation). Conditions: approximate, calculated according to FIG. 5; no linear Lineweaver-Burk plot.
Type: biochemical, Staphylococcus sp. B-0875
Text: Under the experimental conditions, Vmax cannot be determined and no linear Lineweaver-Burk plot can be obtained.

Row | Molecule | Km [µM]
40 | OC[C@H]1O[C@H](O[C@H]2[C@H](O)[C@@H](O)[C@H](O)O[C@@H]2CO)[C@H](O)[C@@H](O)[C@@H]1O [maltose] | ~3800
41 | OC[C@H]1O[C@H](O[C@H]2[C@H](O)[C@@H](O)[C@H](O)O[C@@H]2CO)[C@H](O)[C@@H](O)[C@@H]1O [β-maltose] | 1360

The molecules below were run on maltose dehydrogenase (acceptor) (assay: not given). Conditions: not given.
Type: biochemical, Staphylococcus sp. B-0875
Protocol: as §1
Metallic ions, EDTA or KCN shown in Table 4 is added to the reaction mixture as in the assay method, and the effect thereof is measured. The results are shown in […]

Row | Molecule | Relative Activity (%)
42 | O=C(O)CN(CCN(CC(=O)O)CC(=O)O)CC(=O)O [EDTA] | 73

Same assay, conditions: 1.0 mM additive in reaction mixture; no addition = 100

Row | Molecule | Relative Activity (%)
43 | [Ba+2].[Cl-].[Cl-] [BaCl2] | 61.2
44 | [Ca+2].[Cl-].[Cl-] [CaCl2] | 101
45 | [Cl-].[Cl-].[Co+2] [CoCl2] | 17.9
46 | [Cl][Cu][Cl] [CuCl2] | 0
47 | [Cl-].[Li+] [LiCl] | 95
48 | [Cl-].[Cl-].[Mg+2] [MgCl2] | 106
49 | [Cl][Mn][Cl] [MnCl2] | 13.4
50 | [N-]=[N+]=[N-].[Na+] [NaN3] | 95
51 | [Cl-].[Cl-].[Zn+2] [ZnCl2] | 4.5
